Patent publication US7452997B2 (priority 2004, dated 2008)
Like-named read-outs stand apart in the source and are kept apart here.

How the values were obtained:
human CB1 receptor [1] = molecular target: T1, human CB1 receptor (Homo sapiens, UniProt P21554); assay: biochemical; format: binding
T1 construct: expressed in transfected cells; host or cells: SK-N-MC cells, stably transfected with pcDNA3 CB-1 (human); semi-purified membrane pellet
Method in brief: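 Membranes from SK-N-MC cells stably expressing human CB1, incubated 90 minutes at 30° C in Tris-HCl buffer with MgCl2, EDTA and fatty acid free BSA, pH 7.5. Bound counts collected by filtration and scintillation counting; IC50 from linear regression over varying compound concentrations.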

human CB2 receptor [2] = molecular target: T2, human CB2 receptor (Homo sapiens, UniProt P34972); assay: Binding assay, cannabinoid CB2 receptor ([3H]-CP-55,940 displacement); conditions: SK-N-MC cell membranes, radioligand CP-55,940 0.2 nM
Method in brief: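 Membranes from SK-N-MC cells stably expressing human CB2, incubated with test compound and 0.2 nM [3H]-CP-55,940 for 90 min at 30 °C in Tris buffer pH 7.5 with fatty-acid-free BSA. Nonspecific binding defined with 10 uM WIN 55,212; filtration and scintillation counting, IC50 by linear regression.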

human CB1 receptor [3] = molecular target: T1, human CB1 receptor; assay: Functional cell-based assay, CB1 receptor mediated change in CRE β-gal expression (agonist / inverse agonist)
Excerpt: (§1) Functional Cell-Based Assay for CB1 or CB2 Agonist and Inverse Agonist Effects on Intra-Cellular Adenylate Cyclase Activity
(§2) The CB1 and CB2 receptors are G-protein coupled receptors (GPCR) which influence cell function via the Gi-protein. These receptors modulate the activity of intracellular adenylate cyclase which in turn produces the intracellular signal messenger cyclic-AMP (cAMP).
(§3) At baseline, or during non-ligand bound conditions, these receptors are constitutively active and tonically suppress adenylate cyclase activity. The binding of an agonists causes further receptor activation and produces additional suppression of adenylate cyclase activity. The binding of an inverse agonist inhibits the constitutive activity of the receptors and results in an increase in adenylate cyclase activity.
(§4) By monitoring intracellular adenylate cyclase activity, the ability of compounds to act as agonists or inverse agonists can be determined.
(§5) Test compounds were evaluated in SK-N-MC cells which, using standard transfection procedures, were stably transfected with human cDNA for pcDNA3-CRE β-gal and pcDNA3 CB1 receptor (human) or pcDNA3 CB2 receptor (human). By expressing CRE β-gal, the cells produced β-galactosidase in response to CRE promoter activation by cAMP. Cells expressing CRE β-gal and either the human CB1 or CB2 receptor will produce less β-galactosidase when treated with a CB1/CB2 agonist and will produce more β-galactosidase when treated with a CB1/CB2 inverse agonist.
(§6) The cells were grown in 96-well plates under standard cell culture conditions at 37° C. in a 5% CO2 atmosphere. After 3 days, the media was removed and a test compound in media (wherein the media was supplemented with 2 mM L-glutamine, […] sodium pyruvate, 0.1% low fatty acid FBS (fetal bovine serum) and antibiotics) was added to the cell. The plates were incubated for 30 minutes at 37° C. and the plate cells were then treated with forskolin over a 4-6 hour period, then washed and lysed. The β-galactosidase activity was quantitated using commercially available kit reagents (Promega Corp. Madison, Wis.) and a VMAX Plate Reader (Molecular Devices, Inc).
(§7) The change in β-galactosidase activity was determined by setting a vehicle treated cell's activity value at 100% and expressing the β-galactosidase activity measured in a corresponding compound treated cell as a percent of the vehicle treated cell activity.
(§8) The EC50 values for compounds tested were calculated by linear regression and were obtained from studies in which varying compound concentrations were used.

human CB2 receptor [4] = molecular target: T2, human CB2 receptor; assay: Functional cell-based assay, CB2 receptor mediated change in CRE β-gal expression (agonist / inverse agonist); conditions: SK-N-MC cells, forskolin
Excerpt: as §1, §2, §3, §4, §5, §6
For cells expressing CRE β-gal and the CB2 receptor, CB2 agonists reduced β-galactosidase activity in a dose-dependent manner and CB2 inverse agonists increased β-galactosidase activity in a dose-dependent manner.
as §7, §8

[5] = Cannabinoid CB2 Receptor Binding IC50, human CB2 receptor
[6] = SK-N-MC cells, CRE β-gal, human CB1 receptor, forskolin, inverse agonist, read-out: CB1 Receptor Functional Inverse Agonist EC50
[7] = inverse agonist, read-out: CB2 Receptor Functional Inverse Agonist EC50

T1 sequence (P21554 whole entry): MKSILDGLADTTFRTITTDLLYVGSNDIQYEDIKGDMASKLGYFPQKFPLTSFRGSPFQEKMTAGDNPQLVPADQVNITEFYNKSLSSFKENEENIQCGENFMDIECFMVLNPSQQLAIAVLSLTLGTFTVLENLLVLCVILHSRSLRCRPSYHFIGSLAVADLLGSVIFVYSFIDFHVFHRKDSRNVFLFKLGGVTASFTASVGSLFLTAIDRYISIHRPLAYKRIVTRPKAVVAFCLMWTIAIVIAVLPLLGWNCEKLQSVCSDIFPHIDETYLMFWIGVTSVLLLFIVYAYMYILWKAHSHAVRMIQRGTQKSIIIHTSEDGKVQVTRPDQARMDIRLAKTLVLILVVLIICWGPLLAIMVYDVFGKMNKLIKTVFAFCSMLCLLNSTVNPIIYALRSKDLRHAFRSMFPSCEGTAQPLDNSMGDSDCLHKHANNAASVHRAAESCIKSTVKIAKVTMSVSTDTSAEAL
T2 sequence (P34972 whole entry): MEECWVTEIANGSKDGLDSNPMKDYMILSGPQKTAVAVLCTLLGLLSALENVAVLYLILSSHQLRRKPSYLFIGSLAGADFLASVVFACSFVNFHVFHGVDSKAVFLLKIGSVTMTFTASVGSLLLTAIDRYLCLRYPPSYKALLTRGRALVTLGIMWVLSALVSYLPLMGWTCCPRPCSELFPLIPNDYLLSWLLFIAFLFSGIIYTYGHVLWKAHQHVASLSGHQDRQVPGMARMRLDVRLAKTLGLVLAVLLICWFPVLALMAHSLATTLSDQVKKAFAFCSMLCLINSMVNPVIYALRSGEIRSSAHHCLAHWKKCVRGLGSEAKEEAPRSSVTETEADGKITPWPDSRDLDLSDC

Row | SMILES | IC50 (human CB1 receptor [1]) [nM] | IC50 (human CB2 receptor [2]; [5]) [nM] | EC50 (human CB1 receptor [3]) [nM] | further results
1 | CCOC(=O)[C@@H]1CCCC[C@@H]1NC(=O)c1nn(Cc2ccccc2)c2c1CCCC2 (relative stereo) [compound 38] | 6 | 3.3 | 103 | 
2 | CC(NS(=O)(=O)C=Cc1nn(-c2ccc(F)cc2)c2c1CCCC2CCc1ccccc1)c1ccccc1 (stereo not shown) [Cpd 258, 2-[1-(4-fluoro-phenyl)-7-phenethyl-4,5,6,7-tetrahydro-1H-indazol-3-yl]-ethenesulfonic acid (1-phenyl-ethyl)-amide] |  |  | 480 | 
3 | CC(NS(=O)(=O)C=Cc1nn(-c2ccc(F)cc2)c2c1CCCC2CCc1ccccc1)C1CCCCC1 (stereo not shown) [Cpd 259, 2-[1-(4-fluoro-phenyl)-7-phenethyl-4,5,6,7-tetrahydro-1H-indazol-3-yl]-ethenesulfonic acid (1-cyclohexyl-ethyl)-amide] |  |  |  | EC50 (human CB1 receptor [3]; [6]): 610 nM
4 | O=C(NN1CCCCC1)c1nn(-c2ccc(Cl)cc2Cl)c2c1CCCC2=Cc1ccc(F)cc1 [Cpd 297, 1-(2,4-dichloro-phenyl)-7-(4-fluoro-benzylidene)-4,5,6,7-tetrahydro-1H-indazole-3-carboxylic acid piperidin-1-ylamide] | 13 |  | 5 | 
5 | COc1cccc(C2CCCc3c(C(=O)N[C@H](CCl)c4ccccc4)nn(-c4ccc(Cl)cc4Cl)c32)c1 (stereo partly drawn) [Cpd 316, 1-(2,4-dichloro-phenyl)-7-(3-methoxy-phenyl)-4,5,6,7-tetrahydro-1H-indazole-3-carboxylic acid [(1S)-2-chloro-1-phenyl-ethyl]-amide] |  |  | 46 | 
6 | COc1ccc(-n2nc(C(=O)NCCc3ccc(N)cc3)c3c2CCCC3)cc1 [compound 7] |  |  |  | IC50 (human CB1 receptor [1]; human CB1 receptor, SK-N-MC cell membranes, radioligand CP-55,940 0.2 nM, read-out: Cannabinoid CB1 Receptor Binding IC50): 3100 nM; IC50 (human CB2 receptor [2]; human CB2 receptor, read-out: Cannabinoid CB2 Receptor Binding IC50): 3570 nM; EC50 (human CB1 receptor [3]; [6]): 3880 nM
7 | COc1ccc(-n2nc(C(=O)NC3C4(C)CCC(C4)C3(C)C)c3c2CCCC3)cc1 (stereo not shown) [compound 9] | 338 | 11.9 | 2750 | 
8 | CCOC(=O)[C@@H]1CCCC[C@@H]1NC(=O)c1nn(-c2ccc(F)cc2)c2c1CCCC2 [compound 33] | 58 | 8 | 135 | 
9 | CCOC(=O)C1C2CCC(C2)C1NC(=O)c1nn(Cc2ccccc2)c2c1CCCC2 (stereo not shown) [compound 43] | 14 | 1 | 295 | 
10 | CCOC(=O)C1CCCc2c1c(C(=O)NC1C3(C)CCC(C3)C1(C)C)nn2C1CCCCC1 (stereo not shown) [compound 73] | 760 | 295 | 1740 | 
11 | CCOC(=O)C1CCc2nn(-c3ccccc3)c(C(=O)NC34CC5CC(CC(C5)C3)C4)c2C1 (stereo not shown) [compound 91] |  |  | 3370 | 
12 | CC12CCC(C1)C(C)(C)C2NC(=O)c1nn(-c2ccc(F)cc2)c2c1CCCC2c1ccccc1 (stereo not shown) [compound 144] | 220 | 40 | 176 | 
13 | CC(NC(=O)c1nn(-c2ccc(F)cc2)c2c1CCCC2c1ccccc1)C12CC3CC(CC(C3)C1)C2 (stereo not shown) [compound 146] |  |  | 1520 | 
14 | CCOC(=O)[C@H]1C2CCC(C2)[C@H]1NC(=O)c1nn(-c2ccc(F)cc2)c2c1CCCC2c1ccccc1 (stereo partly shown) [compound 147] | 2080 | 1790 | 152 | 
15 | CC12CCC(C1)C(C)(C)C2NC(=O)c1nn(-c2ccc(F)cc2)c2c1CCCC2CCc1ccccc1 (stereo not shown) [compound 151] | 590 | 30 | 801 | 
16 | O=C(NC12CC3CC(CC(C3)C1)C2)c1nn(-c2ccc(F)cc2)c2c1CCCC2c1ccccc1 (stereo not shown) [compound 165] |  | 800 | 1030 | 
17 | CCNC(=O)[C@@H]1C2CCC(C2)[C@@H]1NC(=O)c1nn(Cc2ccccc2)c2c1CCCC2 (stereo partly shown) [compound 167] | 1660 | 28 | 3360 | 
18 | COC(=O)[C@@H]1CCc2c(c(C(=O)NC3C4CC5CC(C4)CC3C5)nn2C2CCCCC2)C1 (stereo partly shown) [compound 219] | 100 | 4 |  | EC50 (human CB2 receptor [4]; [7]): 320 nM
19 | CC(C)OC(=O)C1CCc2c(c(C(=O)NC3C4CC5CC(C4)CC3C5)nn2C2CCCCC2)C1 (stereo not shown) [compound 232] | 2400 | 30 |  | EC50 (human CB2 receptor [4]; [7]): 360 nM

Row | SMILES | IC50 (human CB1 receptor [1]) [nM] | IC50 (human CB2 receptor [2]; [5]) [nM] | EC50 (human CB1 receptor [3]) [nM] | further results
20 | CC(NC(=O)c1nn(Cc2ccccc2)c2c1CCCC2c1ccccc1)c1ccccc1 (stereo not shown) [compound 253] | 25 | 300 | 1940 | 
21 | CCOC(=O)C1CCc2c(c(C(=O)NC(C)c3ccccc3)nn2Cc2ccccc2)C1 (stereo not shown) [compound 256] | 260 | 300 | 250 | 
22 | CCOC(=O)[C@@H]1C2CCC(C2)[C@@H]1NC(=O)c1nn(C2CCCCC2)c2c1CCCC2 (stereo partly shown) [compound 278] | 403 | 37.5 |  | EC50 (human CB2 receptor [4]; agonist, read-out: CB2 Receptor Functional Agonist EC50): 0.78 nM
23 | CCOC(=O)C1CCc2c(C(=O)N[C@H](C)C3CCCCC3)nn(C3CCCCC3)c2C1 (stereo partly shown) [compound 284] | 350 | 45 |  | EC50 (human CB2 receptor [4]; [7]): 360 nM
24 | O=C(NN1CCCCC1)c1nn(-c2ccc(Cl)cc2Cl)c2c1CCC/C2=C\c1ccc(Cl)cc1 [compound 290] | 25 | 1000 | 44 | 
25 | O=C(NN1CCOCC1)c1nn(-c2ccc(Cl)cc2Cl)c2c1CCC/C2=C\c1ccc(Cl)cc1 [compound 291] | 180 | 1700 | 10 | 
26 | CC1(C)[C@@H]2CC[C@@](C)(C2)[C@H]1NC(=O)c1nn(-c2ccc(Cl)cc2Cl)c2c1CCC/C2=C\c1ccc(Cl)cc1 [compound 292] | 33 | 60 | 9 | 
27 | C[C@@H](NC(=O)c1nn(-c2ccc(Cl)cc2Cl)c2c1CCC/C2=C\c1ccc(Cl)cc1)C1CCCCC1 [compound 293] | 6 | 600 | 25 | 
28 | C[C@H](NC(=O)c1nn(-c2ccc(Cl)cc2Cl)c2c1CCC/C2=C\c1ccc(Cl)cc1)c1ccccc1 [compound 294] | 110 | 700 | 140 | 
29 | C[C@@H](NC(=O)c1nn(-c2ccc(Cl)cc2Cl)c2c1CCC/C2=C\c1ccc(F)cc1)C1CCCCC1 [compound 295] | 3 |  | < 30 | 
30 | C[C@@H](NC(=O)c1nn(-c2ccc(Cl)cc2Cl)c2c1CCC/C2=C\c1ccc(F)cc1)c1ccccc1 [compound 296] | 5 |  | 13 | 
31 | O=C(NN1CCOCC1)c1nn(-c2ccc(Cl)cc2Cl)c2c1CCC/C2=C\c1ccc(F)cc1 [compound 298] | 64 |  | 4 | 
32 | C[C@H](NC(=O)/C=C/c1nn(Cc2ccccc2)c2c1CCCC2)c1ccccc1 [compound 305] | 9800 | 7200 | 630 | 
33 | C[C@@H](NC(=O)c1nn(-c2ccc(Cl)cc2Cl)c2c1CCC/C2=C\c1ccc(Cl)cc1)c1ccccc1 [compound 307] |  |  | 100 | 
34 | C[C@H](NC(=O)c1nn(-c2ccc(Cl)cc2Cl)c2c1CCCC2=Cc1ccc(F)cc1)C1CCCCC1 [compound 309] | 47 |  | 81 | 
35 | COc1cccc(C2CCCc3c(C(=O)N[C@H](C)c4ccccc4)nn(-c4ccc(Cl)cc4Cl)c32)c1 (stereo partly shown) [compound 312] |  |  | 36 | 
36 | O=C(NCc1ccccn1)c1nn(-c2ccc(Cl)cc2Cl)c2c1CCCC2=Cc1ccc(Cl)cc1 [compound 319] |  |  | 50 | 
37 | CC(NC(=O)c1nn(-c2ccc(Cl)cc2Cl)c2c1CCC/C2=C\c1ccc(Cl)cc1)c1ccccn1 (stereo not shown) [compound 320] | 14 |  | 1 | 
38 | C[C@H](NC(=O)c1nn(-c2ccc(Cl)cc2Cl)c2c1CCCC2=Cc1ccc(Cl)cc1)C1CCCCC1 [compound 321] | 230 | 600 | 133 | 
